Biological target: T1, human FSH receptor (Homo sapiens, UniProt P23945)
T1 construct: expressed in transfected cells
T1 sequence (P23945 18-695): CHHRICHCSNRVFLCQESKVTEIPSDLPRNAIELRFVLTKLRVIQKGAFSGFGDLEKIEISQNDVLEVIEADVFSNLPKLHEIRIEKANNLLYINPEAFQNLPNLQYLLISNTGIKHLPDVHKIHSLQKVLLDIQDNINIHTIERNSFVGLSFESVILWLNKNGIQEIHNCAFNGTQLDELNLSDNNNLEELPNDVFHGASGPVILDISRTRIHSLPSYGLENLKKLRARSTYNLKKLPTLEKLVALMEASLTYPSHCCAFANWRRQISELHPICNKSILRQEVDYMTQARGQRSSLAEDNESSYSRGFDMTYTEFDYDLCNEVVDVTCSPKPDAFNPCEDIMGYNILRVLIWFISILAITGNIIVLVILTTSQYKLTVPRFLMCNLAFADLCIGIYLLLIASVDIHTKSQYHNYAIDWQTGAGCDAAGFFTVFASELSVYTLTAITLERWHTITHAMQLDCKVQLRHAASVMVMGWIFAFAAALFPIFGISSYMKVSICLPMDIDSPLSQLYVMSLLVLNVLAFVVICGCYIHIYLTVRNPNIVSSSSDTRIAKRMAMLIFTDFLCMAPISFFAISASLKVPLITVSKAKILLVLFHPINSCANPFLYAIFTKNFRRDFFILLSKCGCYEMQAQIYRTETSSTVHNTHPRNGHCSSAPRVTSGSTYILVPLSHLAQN
Experiment: hFSHRago (CHO luc): agonistic activity at the human FSH receptor expressed in CHO cells, CRE-luciferase reporter
Assay type: cell-based
Conditions: CHO cells stably transfected with human FSH receptor and CRE/luciferase reporter; 4 hours of incubation

Row | SMILES | EC50
1 | COCc1c(-c2cccs2)c2n(c1C(=O)N(C)C(C)(C)C)CCc1cc(OC)c(OC(C)C)cc1-2 [Example 41, 9-Isopropoxy-8-methoxy-2-methoxymethyl-1-thiophen-2-yl-5,6-dihydro-pyrrolo[2,1-α]isoquinoline-3-carboxylic acid tert-butyl-methyl-amide] | 2.8 nM
2 | COc1cc2c(cc1OC(C)C)-c1c(-c3cccs3)cc(C(=O)N3CCCN(C(=O)CSC)CC3)n1CC2 [Example 2, 1-[4-(9-Isopropoxy-8-methoxy-1-thiophen-2-yl-5,6-dihydro-pyrrolo[2,1-α]isoquinoline-3-carbonyl)-[1,4]diazepan-1-yl]-2-methylsulfanyl-ethanone] | 0.5 nM
3 | COc1cc2c(cc1OC(C)C)-c1c(-c3cccs3)cc(C(=O)N(C)C3C[C@@H]4CN(C(C)=O)C[C@@H]4C3)n1CC2 (stereo partly drawn) [Example 24, 9-Isopropoxy-8-methoxy-1-thiophen-2-yl-5,6-dihydro-pyrrolo[2,1-α]isoquinoline-3-carboxylic acid (2-acetyl-octahydro-cyclopenta[c]pyrrol-5(endo)-yl)-methyl-amide] | 191 nM
4 | COc1cc2c(cc1O)-c1c(-c3cccs3)cc(C(=O)N(C)C(C)(C)C)n1CC2 [Example 52, 9-Hydroxy-8-methoxy-1-thiophen-2-yl-5,6-dihydro-pyrrolo[2,1-α]isoquinoline-3-carboxylic acid tert-butyl-methyl-amide] | 356 nM
5 | COc1cc2c(cc1OC(C)C)-c1c(-c3cccs3)cc(C(=O)N3C[C@H]4C[C@@H](N(C)C(C)=O)C[C@H]4C3)n1CC2 [Example 26, N-[2-(9-Isopropoxy-8-methoxy-1-thiophen-2-yl-5,6-dihydro-pyrrolo[2,1-α]isoquinoline-3-carbonyl)-octahydro-cyclopenta[c]pyrrol-5-yl]-N-methyl-acetamide] | 173 nM
6 | CCOc1cc2c(cc1OC)CCn1c(C(=O)N(CC)C(C)C)c(C(C)=O)c(-c3cccs3)c1-2 [Example 112, 2-Acetyl-9-ethoxy-8-methoxy-1-thiophen-2-yl-5,6-dihydro-pyrrolo[2,1-α]isoquinoline-3-carboxylic acid ethyl-isopropyl-amide] | 200 nM
7 | CCOC(=O)c1cc2c(cc1OC)CCn1c(C(=O)N3CCCN(C(=O)C4CCC4)CC3)cc(-c3cccs3)c1-2 [Example 84, 3-(4-Cyclobutanecarbonyl-[1,4]diazepane-1-carbonyl)-8-methoxy-1-thiophen-2-yl-5,6-dihydro-pyrrolo[2,1--α]isoquinoline-9-carboxylic acid ethyl ester] | 2.9 nM
8 | COc1cc2ccn3c(C(=O)N(C)C(C)(C)C)cc(-c4cccs4)c3c2cc1OCCO [Example 36, 9-(2-Hydroxy-ethoxy)-8-methoxy-1-thiophen-2-yl-pyrrolo[2,1-α]isoquinoline-3-carboxylic acid tert-butyl-methyl-amide] | 2.5 nM
9 | COc1cc2c(cc1N1CCN(C)CC1)-c1c(-c3cccs3)cc(C(=O)N(C)C(C)(C)C)n1CC2 [Example 54, 8-Methoxy-9-(4-methyl-piperazin-1-yl)-1-thiophen-2-yl-5,6-dihydro-pyrrolo[2,1-α]isoquinoline-3-carboxylic acid tert-butyl-methyl-amide] | 455 nM
10 | COc1cc2c(cc1OC(C)C)-c1c(-c3cccs3)c(C=NO)c(C(=O)N(C)C(C)(C)C)n1CC2 [Example 42, 2-(Hydroxyimino-methyl)-9-isopropoxy-8-methoxy-1-thiophen-2-yl-5,6-dihydro-pyrrolo[2,1-α]isoquinoline-3-carboxylic acid tert-butyl-methyl-amide] | 1.2 nM
11 | COc1cc2c(cc1CO)-c1c(-c3cccs3)cc(C(=O)N(C)C(C)(C)C)n1CC2 [Example 121a, 9-Hydroxymethyl-8-methoxy-1-thiophen-2-yl-5,6-dihydro-pyrrolo[2,1-α]isoquinoline-3-carboxylic acid tert-butyl-methyl-amide] | 10 nM
12 | COc1cc2c(cc1OC(C)C)-c1c(-c3cccs3)cc(C(=O)N3CCCC3c3cccnc3)n1CC2 (stereo not drawn) [Example 29, (9-Isopropoxy-8-methoxy-1-thiophen-2-yl-5,6-dihydro-pyrrolo[2,1-α]isoquinolin-3-yl)-(2-pyridin-3-yl-pyrrolidin-1-yl)-methanone] | 624 nM
13 | COc1cc2c(cc1NC(=O)C(C)C)-c1c(-c3cccs3)cc(C(=O)N3CCCC3(C)C)n1CC2 [Example 62, N-[3-(2,2-Dimethyl-pyrrolidine-1-carbonyl)-8-methoxy-1-thiophen-2-yl-5,6-dihydro-pyrrolo[2,1-α]isoquinolin-9-yl]-isobutyramide] | 3.7 nM
14 | COc1cc2c(cc1OC(C)C)-c1c(-c3cccs3)cc(C(=O)N3CCCN(S(=O)(=O)c4ccc(C)cc4)CCC3)n1CC2 [Example 17, (9-Isopropoxy-8-methoxy-1-thiophen-2-yl-5,6-dihydro-pyrrolo[2,1-α]isoquinolin-3-yl)-[5-(toluene-4-sulfonyl)-perhydro-1,5-diazocin-1-yl]-methanone] | 914 nM
15 | COc1cc2c(cc1OC)-c1c(-c3ccsc3)cc(C(=O)N(C)CC(=O)N(C)CC(C)C)n1CC2 [Example 119e, 8,9-dimethoxy-1-thiophen-3-yl-5,6-dihydro-pyrrolo[2,1-α]isoquinoline-3-carboxylic acid [(isobutyl-methyl-carbamoyl)-methyl]-methyl-amide] | 1080 nM
16 | COc1cc2c(cc1OC(C)C)-c1c(-c3cccs3)c(C=O)c(C(=O)N(C)C(C)(C)C)n1CC2 [Example 39, 2-Formyl-9-isopropoxy-8-methoxy-1-thiophen-2-yl-5,6-dihydro-pyrrolo[2,1-α]isoquinoline-3-carboxylic acid tert-butyl-methyl-amide] | 2.7 nM
17 | CNCC(=O)N1CCCN(C(=O)c2cc(-c3cccs3)c3n2CCc2cc(OC)c(OC(C)C)cc2-3)CC1 [Example 6, 1-[4-(9-Isopropoxy-8-methoxy-1-thiophen-2-yl-5,6-dihydro-pyrrolo[2,1-α]isoquinoline-3-carbonyl)-[1,4]diazepan-1-yl]-2-methylamino-ethanone] | 264 nM
18 | COc1cc2c(cc1OC)-c1c(Br)cc(C(=O)N3CCCN(C(=O)C4CCC4)CC3)n1CC2 [Example 108c] | 100 nM
19 | CN(C(=O)c1cc(-c2cccs2)c2n1CCc1ccc(NS(=O)(=O)N(C)C)cc1-2)C(C)(C)C [Example 103, 9-Dimethylaminosulfonylamino-1-thiophen-2-yl-5,6-dihydro-pyrrolo[2,1-α]isoquinoline-3-carboxylic acid tert-butyl-methyl-amide] | 756 nM
20 | COc1cc2c(cc1OC(C)C)-c1c(-c3cccs3)cc(C(=O)N3CCCN(C(C)=O)CC3)n1CC2 [Example 12a] | 5.2 nM
21 | CN(C(=O)c1cc(-c2cccs2)c2n1CCc1ccc(N3CCNC3=O)cc1-2)C(C)(C)C [Example 90, 9-(2-Oxo-imidazolidin-1-yl)-1-thiophen-2-yl-5,6-dihydro-pyrrolo[2,1-α]isoquinoline-3-carboxylic acid tert-butyl-methyl-amide] | 218 nM
22 | COc1cc2c(cc1OCC1CC1)-c1c(-c3cccs3)cc(C(=O)N3CCCN(C(C)=O)CC3)n1CC2 [Example 77, 1-[4-(9-Cyclopropylmethoxy-8-methoxy-1-thiophen-2-yl-5,6-dihydro-pyrrolo[2,1-α]iso-quinoline-3-carbonyl)-perhydro-1,4-diazepin-1-yl]-ethanone] | 57.6 nM

Source: patent US8394789B2, “(Dihydro)pyrrolo[2,1-α]isoquinolines” (MSD Oss B.V., priority 2008, dated 2013)
